PMC9698773, “Design, Synthesis, Molecular Modeling, and Anticancer Evaluation of New VEGFR-2 Inhibitors Based on the Indolin-2-One Scaffold” (Pharmaceuticals, 2022)
Where “and” joins values, the source holds several entries; their conditions need not be identical. Equal values may be shown once.

Tested on: Bcl-2
Test: Bcl-2 expression assay (Western blot)
Format: cell-based, human
Conditions: HepG2, 1.13 µM, 24 h
Experimental: The expression of BAX and Bcl-2 were evaluated in the HepG2 cells after treatment with 1.13 µM of compound 17a for 24 h. The Western blotting technique was utilized to determine the levels of Bax and Bcl-2 proteins and estimate the Bax/Bcl-2 ratio.
The expression of apoptotic BAX and antiapoptotic Bcl-2 proteins in the liver HepG2 cells treated with 1.13 μM of 17a was determined using Western blot analysis, as described in the Supplementary Materials. […]
Casp3 F: 5ʹ‐ […] ‐3ʹ
Casp3 R: 5ʹ‐ […] ‐3ʹ […]
β‐actin F: 5ʹ‐[…]‐3ʹ […]
β‐actin R: 5ʹ‐[…]‐3ʹ […]
4.2.6. Bax and Bcl‐2 expression assay
The expression of BAX and Bcl‐2 proteins were determined using Western blot anal‐ ysis. In brief, HepG2 cells were treated with control or with the synthesized compound 17a (1.13 μM). […] Total protein concentrations in the supernatant were colorimetrically determined using the Pierce 660 nm Protein Assay method (Thermo Fisher Scientific, Rockford, IL), with BSA as the stand‐ ard. […] Means of the detected blot intensities were then quantified, analyzed by the combined Bio‐Rad Image Lab soft‐ ware and their corresponding background subtracted, with normalization to the corre‐ sponding bands density of β‐actin as the sampling loading control. […]

**Q.** How did the “decrease of Bcl-2 expression versus control” value turn out when `O=C1Nc2ccccc2C1=Nc1ccc(C(=O)NNC(=S)Nc2ccccc2)cc1` [Compound 17a, 2-(4-((2-Oxoindolin-3-ylidene)amino)benzoyl)-N-phenylhydrazinecarbothioamide] was run?
**A.** Its value is 1.88 fold and 1.9 fold.

**Q.** What about the “Protein Expression (Normalized to β-Actin) Bcl-2” value (control 0.432) of the same molecule?
**A.** Its value is 0.229.
